Like-named read-outs stand apart in the source and are kept apart here.
Tests used:
[1] = target: T1, human P-gp (Homo sapiens, UniProt P08183); experiment: Human P-gp ATPase assay (vanadate-sensitive ATPase activity); type: biochemical; conditions: concentration not given
T1 construct: purchased BD Gentest (Woburn, MA)

[2] = Stability in rat plasma (autosampler, bench top, freeze/thaw, long-term freezer); type: in vitro ADME
Procedure: Validation was carried out as per US FDA bioanalytical method validation guidelines. The extraction recovery of analytes, through protein precipitation extraction procedure, was determined by comparing the peak areas of extracted plasma (pre-spiked) standard QC samples (n = 6) to those of the post-spiked standards at equivalent concentrations (QC low, QC medium and QC high concentrations for the analytes and 50 ng/mL for IS). Specificity and selectivity was studied by using independent plasma samples from six different rats to investigate the potential interferences at the LC peak region for analyte and IS, using the proposed extraction procedure and chromatographic–MS conditions. Matrix effect was determined by comparing the responses of the post-extracted plasma standard QC samples (n = 6) with the response of analytes from neat standard samples, for all analytes at LLOQ[22]. Calibration curve was constructed using […] calibration standards of LUME and 99–411 and of PPQ and 99–411 (3.9, 7.8, 15.6, 31.25, 62.5, 125, 250 and 500 ng/mL) by spiking 90 μL of pooled drug free rat plasma with the appropriate working standard solution of the analytes (10 μL). The intra-day assay precision and accuracy were estimated by analyzing six replicates at four the QC levels, i.e., 3.9/7.8, 10, 100 and 400 ng/mL,for both the combinations. The inter-assay precision was determined by analyzing the four levels QC samples on three different runs. The criteria for acceptability of the data included accuracy within ± 15% deviation from the nominal values and a precision of within ± 15% relative standard deviation (R.S.D.), except for LLOQ, where it should not exceed ± 20% of accuracy as well as precision. All stability studies were conducted at two concentration levels, i.e. […] The dilution integrity experiment was performed to validate the dilution test to be carried out on higher analyte concentrations (above the upper limit of quantification), which may be encountered during real subject samples analysis. Dilution integrity experiments were carried out by 20 times dilution of plasma samples containing 8000 ng/mL of LUME and 99–411 and PPQ and 99–411 with blank plasma to obtain samples containing 400 ng/mL of the respective combinations.

[3] = Pharmacokinetic interaction study, oral administration alone or in combination in rats; type: in vivo, rat; conditions: for AUC(0-inf) / CL/F / Cmax / Tmax / Vd/F / half-life / AUC(0-t): rat, plasma, po
Procedure: Rats were divided into five groups (n = 5, each); three control groups (LUME 10 mg/kg, oral, suspension in 0.25% Sodium CMC; PPQ 50 mg/kg, oral, solution in triple distilled water; and 99–411 70 mg/kg, oral, suspension in 0.25% Sodium CMC) and two co-administration group (70 mg/kg of oral 99–411 & 10 mg/kg of oral LUME; and 70 mg/kg of oral 99–411 & 50 mg/kg of oral PPQ). The rats were fasted overnight (14–16 h) prior to the experiment but given free access to water. Blood samples were collected from the retro-orbital plexus into heparinized microfuge tubes at 0.25, 0.50, 1, 3, 6, 9, 11, 13, 15, 24, 48, 72 and 120 h post-dosing and plasma was harvested by centrifuging the blood at 15000 × g for 10 min and stored frozen at –70 ± 10 °C until bioanalysis. Plasma data were subjected to non-compartmental pharmacokinetics analysis using WinNonlin (version 5.1, Pharsight Corporation, Mountain View, USA). The pharmacokinetic parameters were compared using student’s t test. […] The relative bioavailability (RB%) was calculated according to equation 1 as follows: […]

[4] = In situ single-pass intestinal perfusion permeability study; type: in vivo; conditions: male, SD, rat, other: single-pass perfusion through the jejunal lumen, rat jejunum, read-out: effective permeability
Procedure: Single-pass intestinal perfusion studies in rats (n = 5 per group) were performed using established methods adapted from the literature. Briefly, male SD rats were fasted overnight for 12 to 16 h with free access to water and anaesthetized using an intra-peritoneal injection of urethane (1 g/kg) and placed on a heated pad to keep normal body temperature. Upon verification of the loss of pain reflex, a midline longitudinal abdominal incision was made, and the lumen of the jejunum (10 cm) was catherised and flushed with 10 ml of saline pre-warmed to 37 °C. The solution of analytes (10 μM) was prepared in perfusion buffer and passed at a flow rate of 0.2 mL/min through the lumen. After allowing 30 min to reach steady-state outlet concentrations, outlet perfusate samples were collected every 15 min for 120 min perfusion period. Phenol red was used as a marker of osmosis/zero permeability. At the end, the length of segment was measured without stretching and finally the animal was euthanized. Samples were analysed by LC-MS/MS after diluting 20 times with mobile phase.

[5] = tested on: P-gp; conditions: cited from earlier work
[6] = tested on: CYP3A4; parameters: method as in PMID 21503937, PMID 10727880, PMID 11463111; conditions: cited from earlier work
[7] = 50 mg/kg, PPQ 50 mg/kg oral alone (control), rats
[8] = PPQ 50 mg/kg oral co-administered with 99–411 70 mg/kg, rats
[9] = 10 mg/kg, LUME 10 mg/kg oral alone (control), rats
[10] = 10 mg/kg, LUME 10 mg/kg oral co-administered with 99–411 70 mg/kg, rats

T1 sequence (P08183 whole entry): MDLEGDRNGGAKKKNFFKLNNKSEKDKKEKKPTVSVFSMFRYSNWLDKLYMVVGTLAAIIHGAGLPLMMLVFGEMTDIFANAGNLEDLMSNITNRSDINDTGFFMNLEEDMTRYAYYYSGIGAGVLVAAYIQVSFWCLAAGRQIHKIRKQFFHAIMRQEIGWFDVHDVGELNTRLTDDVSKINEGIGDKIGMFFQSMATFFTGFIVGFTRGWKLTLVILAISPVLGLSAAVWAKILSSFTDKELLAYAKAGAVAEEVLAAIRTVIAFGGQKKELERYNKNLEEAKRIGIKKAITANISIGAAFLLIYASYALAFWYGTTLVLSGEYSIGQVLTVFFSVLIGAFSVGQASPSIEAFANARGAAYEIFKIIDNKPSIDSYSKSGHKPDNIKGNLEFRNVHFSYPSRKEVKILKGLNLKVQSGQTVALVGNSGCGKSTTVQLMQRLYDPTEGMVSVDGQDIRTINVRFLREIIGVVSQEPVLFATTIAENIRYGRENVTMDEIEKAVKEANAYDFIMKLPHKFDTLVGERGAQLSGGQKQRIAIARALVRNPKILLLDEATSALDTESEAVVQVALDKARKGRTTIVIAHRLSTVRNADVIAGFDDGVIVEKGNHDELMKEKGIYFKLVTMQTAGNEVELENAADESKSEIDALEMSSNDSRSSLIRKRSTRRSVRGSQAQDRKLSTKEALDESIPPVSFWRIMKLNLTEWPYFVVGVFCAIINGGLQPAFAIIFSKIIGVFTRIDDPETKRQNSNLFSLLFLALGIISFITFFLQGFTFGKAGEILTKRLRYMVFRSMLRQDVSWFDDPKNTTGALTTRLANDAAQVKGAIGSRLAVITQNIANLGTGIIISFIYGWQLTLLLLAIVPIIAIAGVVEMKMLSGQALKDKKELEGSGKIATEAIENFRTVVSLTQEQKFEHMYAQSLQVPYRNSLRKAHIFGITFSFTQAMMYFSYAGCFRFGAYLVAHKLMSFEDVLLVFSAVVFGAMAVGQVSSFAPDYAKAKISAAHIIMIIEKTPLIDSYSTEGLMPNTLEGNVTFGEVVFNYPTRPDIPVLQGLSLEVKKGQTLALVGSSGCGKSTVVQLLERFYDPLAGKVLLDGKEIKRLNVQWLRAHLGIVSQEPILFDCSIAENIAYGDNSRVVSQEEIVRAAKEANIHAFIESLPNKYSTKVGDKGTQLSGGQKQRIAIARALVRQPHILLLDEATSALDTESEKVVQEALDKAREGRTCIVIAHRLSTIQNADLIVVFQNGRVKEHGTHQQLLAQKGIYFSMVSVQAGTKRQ

CC(C)NCC(O)COc1cccc2ccccc12 (centres unmarked) [propranolol]
basal ATPase activity in the presence of the negative control [1]: 0.96

Clc1ccc2c(N3CCN(CCCN4CCN(c5ccnc6cc(Cl)ccc56)CC4)CC3)ccnc2c1 [PPQ, piperaquine]
Accuracy (%) in stability test ([2]; PPQ/99-411 method, 10 ng/mL, 6 h (BT, bench top, room temperature)): 99.31%
Accuracy (%) in stability test ([2]; PPQ/99-411 method, 10 ng/mL, 24 h (AS, autosampler)): 105.78%
Accuracy (%) in stability test ([2]; PPQ/99-411 method, 10 ng/mL, 15 days at -70 °C): 106.75%
Accuracy (%) in stability test ([2]; PPQ/99-411 method, 10 ng/mL, FT-3 (three freeze/thaw cycles)): 99.51%
Accuracy (%) in stability test ([2]; PPQ/99-411 method, 400 ng/mL, 6 h (BT, bench top, room temperature)): 102.13%
Accuracy (%) in stability test ([2]; PPQ/99-411 method, 400 ng/mL, 24 h (AS, autosampler)): 102.48%
Accuracy (%) in stability test ([2]; PPQ/99-411 method, 400 ng/mL, 15 days at -70 °C): 103.59%
Accuracy (%) in stability test ([2]; PPQ/99-411 method, 400 ng/mL, FT-3 (three freeze/thaw cycles)): 100.98%
increase of Vd/F of PPQ with 99–411 co-administration ([3]; oral, rats): 194.49%
increase of clearance (Cl/F) of PPQ with 99–411 co-administration ([3]; oral, rats): 41.94%
decrease of AUC0-∞ of PPQ in presence of 99–411 ([3]; oral, rats, vs PPQ alone, p = 0.0018): 61.39%
decrease of Cmax of PPQ in presence of 99–411 ([3]; oral, rats, vs PPQ alone, p = 0.0154): 61.67%
AUC(0-inf) [3, 7]: 31500 ± 2680 ng·h/mL
CL/F [3, 7]: 26.7 mL/min/kg
Cmax [3, 7]: 890 ± 230 ng/mL
Tmax [3, 7]: 6.6 ± 1.34 h
Vd/F [3, 7]: 49 ± 8.38 L/kg
half-life [3, 7]: 21.4 ± 4.39 h
AUC(0-t) ([3]; 50 mg/kg, PPQ 50 mg/kg oral alone (control), rats n=5, mean ± SD): 28100 ± 2790 ng·h/mL
AUC(0-inf) [3, 8]: 19400 ± 5290 ng·h/mL
AUC(0-t) [3, 8]: 17000 ± 5030 ng·h/mL
CL/F [3, 8]: 45.5 mL/min/kg
Cmax [3, 8]: 540 ± 110 ng/mL
Tmax [3, 8]: 6 h
Vd/F [3, 8]: 166 ± 71.7 L/kg
half-life [3, 8]: 41.7 ± 11.8 h

CCCCN(CCCC)CC(O)c1cc(Cl)cc2c1-c1ccc(Cl)cc1/C2=C/c1ccc(Cl)cc1 (centres unmarked) [LUME, lumefantrine]
Papp at 120 min, 10 μM ([4]; lumefantrine co-perfused with 99–411, 10 μM): 46.8 ± 13.7 ×10⁻⁶ cm/s
Papp at 120 min, 10 μM ([4]; lumefantrine control, 10 μM): 40.3 ± 4.9 ×10⁻⁶ cm/s
Accuracy (%) in stability test ([2]; LUME/99-411 method, 10 ng/mL, 6 h (BT, bench top, room temperature)): 91.73%
Accuracy (%) in stability test ([2]; LUME/99-411 method, 10 ng/mL, 24 h (AS, autosampler)): 98.45%
Accuracy (%) in stability test ([2]; LUME/99-411 method, 10 ng/mL, 15 day at -70 °C): 97.80%
Accuracy (%) in stability test ([2]; LUME/99-411 method, 10 ng/mL, FT-3 (three freeze/thaw cycles)): 91.33%
Accuracy (%) in stability test ([2]; LUME/99-411 method, 400 ng/mL, 6 h (BT, bench top, room temperature)): 95.94%
Accuracy (%) in stability test ([2]; LUME/99-411 method, 400 ng/mL, 24 h (AS, autosampler)): 100.13%
Accuracy (%) in stability test ([2]; LUME/99-411 method, 400 ng/mL, 15 day at -70 °C): 101.30%
Accuracy (%) in stability test ([2]; LUME/99-411 method, 400 ng/mL, FT-3 (three freeze/thaw cycles)): 100.96%
AUC(0-inf) [3, 9]: 17400 ± 3290 ng·h/mL
CL/F [3, 9]: 9.83 mL/min/kg
Cmax [3, 9]: 1810 ± 750 ng/mL
Tmax [3, 9]: 3.75 ± 1.5 h
Vd/F [3, 9]: 39.4 ± 6.26 L/kg
half-life [3, 9]: 46.9 ± 6.52 h
AUC(0-t) ([3]; 10 mg/kg, LUME 10 mg/kg oral alone (control), rats n=5, mean ± SD): 16500 ± 2960 ng·h/mL
AUC(0-inf) [3, 10]: 16500 ± 3510 ng·h/mL
AUC(0-t) [3, 10]: 15400 ± 3580 ng·h/mL
CL/F [3, 10]: 10.5 mL/min/kg
Cmax [3, 10]: 1740 ± 670 ng/mL
Tmax [3, 10]: 3.6 ± 1.34 h
Vd/F [3, 10]: 46.4 ± 16.4 L/kg
half-life [3, 10]: 50.8 ± 10.2 h
P-gp substrate status [5]: P-gp substrate
CYP3A4 substrate status [6]: CYP3A4 substrates

— publication PMC4658560, “Assessment of pharmacokinetic compatibility of short acting CDRI candidate trioxane derivative, 99–411, with long acting prescription antimalarials, lumefantrine and piperaquine” (Scientific Reports, 2015)
